This note sets out measurements from PubChem BioAssay AID248 (DTP/NCI, 2004).

For this assay, the system named is L1210 leukemia ip in BDF1 mice, survival T/C. Kind of assay: NCI In Vivo Anticancer Drug Screen. Data for tumor model L1210 Leukemia (intraperitoneal) in B6D2F1 (BDF1) mice. To be noted: higher = longer survival. The method, boiled down:
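Transplantable tumor model; survival measured in treated vs vehicle control mice. Value = treated/control.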

Molecules are shown by their SMILES. Several values for one entry are separate records, joined by “and”; a condition that tells them apart may be missing. Identical values can stand only once. Toxic doses and inconclusive results are not listed.

For `c1ccc(C(=C2CCC2)c2c3ccccc3cc3ccccc23)cc1`, the T/C by setting is: (endpoint: mean survival time, dose: 40.0 mg/kg/injection, schedule: Q01DX009 (ip), vehicle: Klucel (hydroxypropylcellulose) (HPC)) 99 % of control; (endpoint: mean survival time, dose: 75.0 mg/kg/injection, schedule: Q01DX001 (ip), vehicle: Klucel (hydroxypropylcellulose) (HPC)) 93 % of control; (endpoint: mean survival time, dose: 75.0 mg/kg/injection, schedule: Q01DX009 (ip), vehicle: Klucel (hydroxypropylcellulose) (HPC)) 107 % of control; (endpoint: mean survival time, dose: 150.0 mg/kg/injection, schedule: Q01DX001 (ip), vehicle: Klucel (hydroxypropylcellulose) (HPC)) 90 % of control; (endpoint: mean survival time, dose: 150.0 mg/kg/injection, schedule: Q01DX009 (ip), vehicle: Klucel (hydroxypropylcellulose) (HPC)) 99 % of control.

For the compound `FC(F)(F)C(F)(F)C(F)(F)c1nc2nc(Cl)c(Cl)nc2[nH]1`, the T/C reads like this: (endpoint: mean survival time, dose: 25.0 mg/kg/injection, schedule: Q01DX009 (ip), vehicle: saline with Tween-80) 111 % of control; (endpoint: mean survival time, dose: 50.0 mg/kg/injection, schedule: Q01DX009 (ip), vehicle: saline with Tween-80) 96 % of control and 100 % of control; (endpoint: mean survival time, dose: 100.0 mg/kg/injection, schedule: Q04DX003 (ip), vehicle: saline with Tween-80) 91 % of control; (endpoint: mean survival time, dose: 200.0 mg/kg/injection, schedule: Q04DX003 (ip), vehicle: saline with Tween-80) 93 % of control.

As to `CC(=O)Nc1onc(C)c1[N+](=O)[O-]`, the T/C reads like this: (endpoint: mean survival time, dose: 100.0 mg/kg/injection, schedule: Q01DX009 (ip), vehicle: saline) 101 % of control; (endpoint: mean survival time, dose: 100.0 mg/kg/injection, schedule: Q04DX003 (ip), vehicle: other) 91 % of control; (endpoint: mean survival time, dose: 200.0 mg/kg/injection, schedule: Q01DX009 (ip), vehicle: saline) 98 % of control and 91 % of control; (endpoint: mean survival time, dose: 200.0 mg/kg/injection, schedule: Q04DX003 (ip), vehicle: other) 92 % of control; (endpoint: mean survival time, dose: 400.0 mg/kg/injection, schedule: Q01DX009 (ip), vehicle: saline) 94 % of control and 86 % of control; (endpoint: mean survival time, dose: 400.0 mg/kg/injection, schedule: Q04DX003 (ip), vehicle: other) 94 % of control.

As to `O=C(c1ccccc1)c1cc(=O)[nH]c(=O)[nH]1`, the T/C reads like this: (endpoint: mean survival time, dose: 47.5 mg/kg/injection, schedule: Q01DX001 (ip), vehicle: Klucel (hydroxypropylcellulose) (HPC)) 100 % of control; (endpoint: mean survival time, dose: 95.0 mg/kg/injection, schedule: Q01DX001 (ip), vehicle: Klucel (hydroxypropylcellulose) (HPC)) 102 % of control; (endpoint: mean survival time, dose: 190.0 mg/kg/injection, schedule: Q01DX001 (ip), vehicle: Klucel (hydroxypropylcellulose) (HPC)) 98 % of control.

On to `O=C(c1ccc(Br)cc1)C1SC2(C(=O)c3ccc(Br)cc3)SC(C(=O)c3ccc(Br)cc3)C(C(=O)c3ccc(Br)cc3)SC2(C(=O)c2ccc(Br)cc2)SC1C(=O)c1ccc(Br)cc1` (configuration not stated), for which the T/C was 100 % of control (endpoint: mean survival time, dose: 75.0 mg/kg/injection, schedule: Q01DX001 (ip), vehicle: saline); 94 % of control (endpoint: mean survival time, dose: 150.0 mg/kg/injection, schedule: Q01DX001 (ip), vehicle: saline); 94 % of control (endpoint: mean survival time, dose: 300.0 mg/kg/injection, schedule: Q01DX001 (ip), vehicle: saline).

In the case of `CC(=O)/C=C/c1ccccc1`, the T/C (endpoint: mean survival time, dose: 100.0 mg/kg/injection, schedule: Q01DX001 (ip), vehicle: gum acacia) was 91 % of control; the T/C (endpoint: mean survival time, dose: 200.0 mg/kg/injection, schedule: Q01DX001 (ip), vehicle: gum acacia) was 105 % of control; the T/C (endpoint: mean survival time, dose: 400.0 mg/kg/injection, schedule: Q01DX001 (ip), vehicle: gum acacia) was 97 % of control.

As for `CSc1nnnc2ccccc12`, the T/C runs as follows: (endpoint: mean survival time, dose: 37.5 mg/kg/injection, schedule: Q04DX002 (ip), vehicle: saline with Tween-80) 113 % of control; (endpoint: mean survival time, dose: 75.0 mg/kg/injection, schedule: Q04DX002 (ip), vehicle: saline with Tween-80) 92 % of control.

For the compound `C/C(=N/N=C(N)N)c1ccc(NC(=O)Nc2ccc(/C(C)=N/N=C(N)N)cc2)cc1`, the T/C is, setting by setting: (endpoint: mean survival time, dose: 8.0 mg/kg/injection, schedule: Q03HX016 (ip), vehicle: other) 159 % of control; (endpoint: mean survival time, dose: 16.0 mg/kg/injection, schedule: Q01DX005 (ip), vehicle: other) 179 % of control; (endpoint: mean survival time, dose: 16.0 mg/kg/injection, schedule: Q01DX009 (ip), vehicle: other) 236 % of control; (endpoint: mean survival time, dose: 20.0 mg/kg/injection, schedule: Q01DX005 (ip), vehicle: saline) 121 % of control; (endpoint: mean survival time, dose: 32.0 mg/kg/injection, schedule: Q01DX005 (ip), vehicle: other) 213 % of control; (endpoint: mean survival time, dose: 32.0 mg/kg/injection, schedule: Q01DX009 (ip), vehicle: other) 239 % of control. For the same compound, the T/C (endpoint: mean survival time, dose: 32.0 mg/kg/injection, schedule: Q01DX009 (ip), vehicle: water) is 154 % of control and 205 % of control; the T/C (endpoint: mean survival time, dose: 40.0 mg/kg/injection, schedule: Q01DX005 (ip), vehicle: saline) is 159 % of control; the T/C (endpoint: mean survival time, dose: 53.0 mg/kg/injection, schedule: Q01DX009 (ip), vehicle: water) was 218 % of control and 255 % of control; the T/C (endpoint: mean survival time, dose: 64.0 mg/kg/injection, schedule: Q01DX001 (ip), vehicle: other) is 116 % of control; the T/C (endpoint: mean survival time, dose: 64.0 mg/kg/injection, schedule: Q01DX001 (oral), vehicle: other) is 111 % of control; the T/C (endpoint: mean survival time, dose: 64.0 mg/kg/injection, schedule: Q01DX009 (oral), vehicle: other) is 111 % of control. In addition, the T/C was 159 % of control (endpoint: mean survival time, dose: 64.0 mg/kg/injection, schedule: Q04DX003 (ip), vehicle: other); 122 % of control (endpoint: mean survival time, dose: 64.0 mg/kg/injection, schedule: Q08DX002 (ip), vehicle: other); 206 % of control (endpoint: mean survival time, dose: 80.0 mg/kg/injection, schedule: Q01DX005 (ip), vehicle: saline); 223 % of control and 251 % of control (endpoint: mean survival time, dose: 88.0 mg/kg/injection, schedule: Q01DX009 (ip), vehicle: water); 101 % of control (endpoint: mean survival time, dose: 128.0 mg/kg/injection, schedule: Q01DX001 (oral), vehicle: other); 106 % of control (endpoint: mean survival time, dose: 128.0 mg/kg/injection, schedule: Q01DX009 (oral), vehicle: other). Moreover, the T/C (endpoint: mean survival time, dose: 147.0 mg/kg/injection, schedule: Q01DX009 (ip), vehicle: water) is 323 % of control; the T/C (endpoint: mean survival time, dose: 160.0 mg/kg/injection, schedule: Q01DX005 (ip), vehicle: saline) is 197 % of control; the T/C (endpoint: mean survival time, dose: 245.0 mg/kg/injection, schedule: Q01DX009 (ip), vehicle: water) was 227 % of control; the T/C (endpoint: mean survival time, dose: 256.0 mg/kg/injection, schedule: Q01DX001 (oral), vehicle: other) is 101 % of control; the T/C (endpoint: mean survival time, dose: 256.0 mg/kg/injection, schedule: Q01DX009 (oral), vehicle: other) is 108 % of control; the T/C (endpoint: mean survival time, dose: 320.0 mg/kg/injection, schedule: Q01DX005 (ip), vehicle: saline) was 173 % of control. Besides, the T/C is 96 % of control (endpoint: mean survival time, dose: 512.0 mg/kg/injection, schedule: Q01DX001 (oral), vehicle: other); 108 % of control (endpoint: mean survival time, dose: 512.0 mg/kg/injection, schedule: Q01DX009 (oral), vehicle: other); 97 % of control (endpoint: mean survival time, dose: 1024.0 mg/kg/injection, schedule: Q01DX001 (oral), vehicle: other); 109 % of control (endpoint: mean survival time, dose: 1024.0 mg/kg/injection, schedule: Q01DX009 (oral), vehicle: other); 152 % of control (endpoint: median survival time, dose: 5.0 mg/kg/injection, schedule: Q03HX024 (ip), vehicle: water); 302 % of control (endpoint: median survival time, dose: 15.0 mg/kg/injection, schedule: Q03HX024 (ip), vehicle: water). Moreover, the T/C was 34 % of control (endpoint: median survival time, dose: 30.0 mg/kg/injection, schedule: Q03HX024 (ip), vehicle: water) and 31 % of control (endpoint: median survival time, dose: 45.0 mg/kg/injection, schedule: Q03HX024 (ip), vehicle: water).

Take `CN1C(=O)C/C(=C/[N+](=O)[O-])c2ccccc21`: the T/C reads like this: (endpoint: mean survival time, dose: 50.0 mg/kg/injection, schedule: Q01DX001 (ip), vehicle: carboxymethylcellulose (CMC)) 101 % of control; (endpoint: mean survival time, dose: 100.0 mg/kg/injection, schedule: Q01DX001 (ip), vehicle: carboxymethylcellulose (CMC)) 97 % of control.

For the compound `COc1ccccc1CCN`, the T/C runs as follows: (endpoint: mean survival time, dose: 100.0 mg/kg/injection, schedule: Q04DX002 (ip), vehicle: saline) 112 % of control; (endpoint: mean survival time, dose: 200.0 mg/kg/injection, schedule: Q04DX002 (ip), vehicle: saline) 93 % of control and 108 % of control.

For the compound `[N-]=[N+]=NCc1cnccn1`, the T/C is 103 % of control (endpoint: mean survival time, dose: 12.5 mg/kg/injection, schedule: Q01DX009 (ip), vehicle: saline); 98 % of control (endpoint: mean survival time, dose: 12.5 mg/kg/injection, schedule: Q04DX003 (ip), vehicle: saline); 101 % of control (endpoint: mean survival time, dose: 25.0 mg/kg/injection, schedule: Q01DX009 (ip), vehicle: saline); 98 % of control (endpoint: mean survival time, dose: 25.0 mg/kg/injection, schedule: Q04DX003 (ip), vehicle: saline); 98 % of control (endpoint: mean survival time, dose: 50.0 mg/kg/injection, schedule: Q04DX003 (ip), vehicle: saline).
